Results from US20260055096A1, “AZOLE PESTICIDAL COMPOUNDS” (BASF SE, priority 2022, published 2026).

Assays:
Format in all cases: in vivo
[1] = system: Diamond back moth (Plutella xylostella); assay: Example B.6: Action on diamond back moth (Plutella xylostella), cabbage leaf dip, 3rd instar larvae; conditions: foliar, 72 hours after treatment, read-out: mortality in comparison with untreated controls
Experimental: The active compound is dissolved at the desired concentration in a mixture of 1:1 (v/v) distilled water: acetone. Surfactant (Kinetic® HV) is added at a rate of 0.01% (v/v). The test solution is prepared at the day of use.
Leaves of cabbage were dipped in test solution and air-dried. Treated leaves were placed in petri dishes lined with moist filter paper and inoculated with ten 3rd instar larvae. Mortality was recorded 72 hours after treatment. Feeding damages were also recorded using a scale of 0-100%.

[2] = system: Orchid thrips (Dichromothrips corbetti); assay: Example B.2: Action on orchid thrips (Dichromothrips corbetti), floral-immersion technique; conditions: 72 hours after treatment, read-out: mortality in comparison with untreated controls
Experimental: Dichromothrips corbetti adults used for bioassay were obtained from a colony maintained continuously under laboratory conditions. For testing purposes, the test compound is diluted in a 1:1 mixture of acetone:water (vol:vol), plus Kinetic® HV at a rate of 0.01% v/v.
Thrips potency of each compound was evaluated by using a floral-immersion technique. All petals of individual, intact orchid flowers were dipped into treatment solution and allowed to dryin Petri dishes. Treated petals were placed into individual re-sealable plastic along with about 20 adult thrips. All test arenas were held under continuous light and a temperature of about 28° C. for duration of the assay. After 3 days, the numbers of live thrips were counted on each petal. The percent mortality was recorded 72 hours after treatment.

[3] = system: Silverleaf whitefly (Bemisia argentifolii) (adults); assay: Example B.4: Action on silverleaf whitefly (Bemisia argentifolii) adults on sprayed cotton plants; conditions: 72 h, 3 days after treatment, read-out: mortality in comparison with untreated controls
Experimental: (§1) The active compounds were formulated by a Tecan liquid handler in 100% cyclohexanone as a 10,000-ppm solution supplied in tubes. The 10,000-ppm solution was serially diluted in 100% cyclohexanone to make interim solutions. These served as stock solutions for which final dilutions were made by the Tecan in 50% acetone:50% water (v/v) into 5 or 10 ml glass vials. A nonionic surfactant (Kinetic®) was included in the solution at a volume of 0.01% (v/v). The vials were then inserted into an automated electrostatic sprayer equipped with an atomizing nozzle for application to plants/insects.
Cotton plants at the cotyledon stage (one plant per pot) were sprayed by an automated electrostatic plant sprayer equipped with an atomizing spray nozzle. The plants were dried in the sprayer fume hood and then removed from the sprayer. Each pot was placed into a plastic cup and about 10 to 12 whitefly adults (approximately 3-5 days old) were introduced. The insects were collected using an aspirator and a nontoxic Tygon® tubing connected to a barrier pipette tip. The tip, containing the collected insects, was then gently inserted into the soil containing the treated plant, allowing insects to crawl out of the tip to reach the foliage for feeding. Cups were covered with a reusable screened lid. […] Mortality was assessed 3 days after treatment, compared to untreated control plants.

[4] = system: boll weevil (Anthonomus grandis); assay: Example B.3: Action on boll weevil (Anthonomus grandis), egg and larval mortality on insect diet; conditions: 120 h, egg and larval mortality after 5 days, read-out: mortality in comparison with untreated controls
Experimental: For evaluating control of boll weevil (Anthonomus grandis) the test unit consisted of 96-well-microtiter plates containing an insect diet and 5-10 A. grandis eggs.
The compounds were formulated using a solution containing 75% (v/v) water and 25% (v/v) DMSO. Different concentrations of formulated compounds were sprayed onto the insect diet at […], using a custom-built micro atomizer, at two replications.
After application, microtiter plates were incubated at about 25±1C and about 75±5% relative humidity for 5 days. Egg and larval mortality were then visually assessed.

[5] = system: tobacco budworm (Heliothis virescens); assay: Example B.5: Action on tobacco budworm (Heliothis virescens), egg and larval mortality on insect diet; conditions: 120 h, egg and larval mortality after 5 days, read-out: mortality in comparison with untreated controls
Experimental: For evaluating control of tobacco budworm (Heliothis virescens) the test unit consisted of 96-well-microtiter plates containing an insect diet and 15-25 H. virescens eggs.
The compounds were formulated using a solution containing 75% v/v water and 25% v/v DMSO. Different concentrations of formulated compounds were sprayed onto the insect diet at 10 μl, using a custom-built micro atomizer, at two replications.
After application, microtiter plates were incubated at about 28±1C and about 80±5% relative humidity for 5 days. Egg and larval mortality were then visually assessed.

[6] = system: Southern armyworm (Spodoptera eridania), 2nd instar larvae; assay: Example B.7: Action on southern armyworm (Spodoptera eridania), 2nd instar larvae on sprayed lima bean plants; conditions: 96 h, 4 days after treatment, read-out: mortality in comparison with untreated controls
Experimental: as §1, with “into 10” for “into 5”, “or 20” for “or 10”
Lima bean plants (variety Sieva) were grown 2 plants to a pot and selected for treatment at the 1st true leaf stage. Test solutions were sprayed onto the foliage by an automated electrostatic plant sprayer equipped with an atomizing spray nozzle. The plants were dried in the sprayer fume hood and then removed from the sprayer. Each pot was placed into perforated plastic bags with a zip closure. About 10 to 11 armyworm larvae were placed into the bag and the bags zipped closed. Test plants were maintained in a growth room at about 25° C. and about 20-40% relative humidity for 4 days, avoiding direct exposure to fluorescent light (24-hour photoperiod) to prevent trapping of heat inside the bags. Mortality and reduced feeding were assessed 4 days after treatment, compared to untreated control plants.

[7] = system: yellow fever mosquito (Aedes aegypti); assay: whole plant or invertebrate; conditions: 48 h, larval mortality after 2 days, read-out: mortality in comparison with untreated controls
Experimental: For evaluating control of yellow fever mosquito (Aedes aegypti) the test unit consisted of 96-well-microtiter plates containing 200 μl of tap water per well and 5-15 freshly hatched A. aegypti larvae.
The active compounds or mixtures were formulated using a solution containing 75% (v/v) water and 25% (v/v) DMSO. Different concentrations of formulated compounds or mixtures were sprayed onto the insect diet at 2.5 μl, using a custom-built micro atomizer, at two replications.
For experimental mixtures in these tests identical volumes of both mixing partners at the desired concentrations respectively, were mixed together.
After application, microtiter plates were incubated at 28 #1° C., 80 #5% RH for 2 days. Larval mortality was then visually assessed.

With `Cc1ccc(C(C)C)c(N2C(=O)CS/C2=N\C(=O)Nc2ccc(-c3nc(NC(=O)c4ccc(OC(F)(F)F)cc4)n(C)n3)cc2Cl)c1` [Example C-6, N-[5-[3-chloro-4-[[(Z)-[3-(2-isopropyl-5-methyl-phenyl)-4-oxo-thiazolidin-2-ylidene]carbamoyl]amino]phenyl]-2-methyl-1,2,4-triazol-3-yl]-4-(trifluoromethoxy)benzamide] the mortality at 300 ppm [1] was no less than 75%, the mortality at 300 ppm [2] was no less than 75% and the mortality at 300 ppm [3] was no less than 75%. It also gave a mortality at 800 ppm [4] of no less than 75%, a mortality at 800 ppm [5] of no less than 75% and a mortality at 300 ppm [6] of no less than 75%. For the same molecule, the mortality at 800 ppm [7] was no less than 50%.
